Here are results for three compounds from patent US4101676A, “Diphenylpropylamines to treat depression” (Beecham Group Limited, priority 1973, dated 1978).

Data set [1] relates to reserpine hypothermia. Put plainly: Prevention of Reserpine Hypothermia. The data set is classed as in vivo, mice (Carworth Europe male). The conditions noted are these: for Reserpine Prevention Δ^6: 6 hours; for Reserpine Prevention Δ^24: 24 hours; for effects on the Reserpine Prevention tests: comparison of the two isomers. The method, then: The method of Spencer [Antidepressant Drugs, 194 (1967) ] was used. Groups of ten mice are given oral doses of test compound 24 18 and 2 hours before an intravenous injection of reserpine base (Serpasil). Oral temperatures of the mice are taken immediately before administration of reserpine and then 2 4 6 and 24 hours afterwards.
Mean temperatures of groups given test compounds are compared with reserpinised controls using a Students t test. Compounds causing a significant difference at the level P < 0.001 are considered active. In order to quantify anti-reserpine activity cumulative temperature differences from controls at 6 hours and 24 hours (Δ^6 and Δ^24 ) are calculated.
(§1) Carworth Europe male mice are used for all experiments apart from that using the cat nictitating membrane and test compounds are administered orally as solutions in distilled water. Compounds for intravenous administration are dissolved in 0.9% saline apart from Reserpine which is dissolved in dilute acetic acid buffered to pH5. Unless otherwise stated, the dosing interval is one hour.
(§2) The Reserpine Prevention, Reserpine Reversal and Noradrenaline Uptake Inhibition tests were carried out as described in the previous Example. The Mydriasis tests was also as described in the previous Example but using 20 mg/kg doses of each compound after which a curve was plotted of percentage increase in pupil diameter vertus time and the percentage increase was integrated with respect to time for 0-120 minutes after dosing and the result expressed as a percentage.

Data set [2] relates to reserpine hypothermia. Put plainly: Reversal of Reserpine Hypothermia. The class given is in vivo, mice (Carworth Europe male). To be noted: for Reserpine Reversal Δ^6: 6 hours; for Reserpine Reversal Δ^24: 24 hours. The procedure: Seventeen hours later the oral temperatures of the mice are taken and various doses of test compound or vehicle given subcutaneously. Temperatures are taken 1, 2, 4 6 and 24 hours later and the results are analysed as in Test 1 (The subcutaneous route is used for convenience as the very depressed reserpinised mice cannot be reliably dosed orally).
as §1, §2

Data set [3] has as its system pupil diameter (mydriasis). Put plainly: Mydriasis integral 0-120 minutes. The class given is in vivo, mice. To be noted: for Mydriasis Integral Percent 120 Mins.: mice, 20 mg/kg, 0-120 minutes. The procedure: Groups of five mice are pre-selected for uniformity of pupil diameter using a binocular microscope with a calibrated eye-piece. Pupil sizes are measured at various intervals after an intraperitoneal injection of test compound and at the peak time a curve plotted of percentage increase in pupil diameter versus log dose. From this the dose causing a 200% increase in pupil size (this lies on the linear part of the curve) is found
as §1, §2

Another data set deals with Noradrenaline uptake. Put plainly: Inhibition of Noradrenaline Uptake in vitro (brain synaptosomes). The data set is classed as biochemical, male Wistar rats. The conditions noted are these: 10^-6 molar (Pharmacology 2). The method, then: Synaptosomes are isolated from the brains of male Wistar rats (150-170g.) and monamine uptake determined by the method of Snyder and Coyle (1968) [Synder S. H. and Coyle J. T. J. Pharmac. exp. Ther. 165 (1968) 78-86]. Uptake was determined over a ten minute period instead of the normal five minutes.
as §2

For a further data set, the system named is central nervous system. To be noted: Barron et al, J. Pharm. Pharmacol., 17, 509 (1965); cited from earlier work.
The mark [4] stands for this setting: Pharmacology 2, dose 10 (unit not given).
[5] abbreviates: Pharmacology 2, dose 20 (unit not given).
Setting [6] is: Pharmacology 2, dose 40 (unit not given).

As for `CN(C)CC(O)C(c1ccccc1)c1ccccc1` (racemic) [Compound B, (+)-3-Dimethylamino-1,1-diphenyl-propan-2-ol], the figures for the “Reserpine Prevention Δ^6” value with reserpine hypothermia [1] (setting [4]), with reserpine hypothermia [1] (setting [5]) and in the data set with reserpine hypothermia [1] (setting [6]) were 12 °C, 16 °C and 16 °C, respectively. For the same compound, the results for the “Reserpine Prevention Δ^24” value with reserpine hypothermia [1] (setting [4]), with reserpine hypothermia [1] (setting [5]) and with reserpine hypothermia [1] (setting [6]) were 15 °C, 23 °C and 25 °C, respectively. The “effects on the Reserpine Prevention tests” value in the data set on reserpine hypothermia [1] is recorded as “roughly equal effects”. Also, the “Reserpine Reversal Δ^6” value was 16 °C in the data set on reserpine hypothermia [2] (setting [4]), 15 °C in the data set on reserpine hypothermia [2] (setting [5]) and 13 °C in the data set with reserpine hypothermia [2] (setting [6]). In addition, the entries for the “Reserpine Reversal Δ^24” value in the data set with reserpine hypothermia [2] (setting [4]), in the data set on reserpine hypothermia [2] (setting [5]) and in the data set with reserpine hypothermia [2] (setting [6]) were 27 °C, 19 °C and 19 °C, respectively. Further, the “activity on the Reserpine Reversal Test” value with reserpine hypothermia [2] (low doses, (+)-isomer versus (-)-isomer) is “more active than the (-)-isomer on the Reserpine Reversal Test at low doses”. Further, the “Mydriasis Integral Percent 120 Mins.” value in data set [3] stood at 12600%. Moreover, the “Inhibition of Noradrenaline Uptake In Vitro %” value with Noradrenaline uptake is listed as 40%.
As to `CN(C)CC(O)C(c1ccccc1)c1ccccc1` (single isomer, unassigned; (-)) [Compound C, (-)-3-Dimethylamino-1,1-diphenylpropan-2-ol], the entries for the “Reserpine Prevention Δ^6” value in the data set on reserpine hypothermia [1] (setting [4]), in the data set with reserpine hypothermia [1] (setting [5]) and in the data set on reserpine hypothermia [1] (setting [6]) were 11 °C, 13 °C and 12 °C, respectively. The “Reserpine Prevention Δ^24” value was 17 °C in the data set with reserpine hypothermia [1] (setting [4]), 19 °C in the data set with reserpine hypothermia [1] (setting [5]) and 19 °C in the data set on reserpine hypothermia [1] (setting [6]). In the data set with reserpine hypothermia [1], the “effects on the Reserpine Prevention tests” value is on record as “roughly equal effects”. The “Reserpine Reversal Δ^6” value in the data set with reserpine hypothermia [2] (setting [4]) amounted to 6 °C; in the data set with reserpine hypothermia [2] (setting [5]) it was 16 °C; in the data set with reserpine hypothermia [2] (setting [6]), 13 °C. The “Reserpine Reversal Δ^24” value with reserpine hypothermia [2] (setting [4]) came to 3 °C; in the data set on reserpine hypothermia [2] (setting [5]) it was 19 °C; with reserpine hypothermia [2] (setting [6]), 20 °C. In data set [3] ((-)-isomer versus (+)-isomer), the peripheral anticholinergic effects entry is on record as “fewer peripheral anticholinergic effects than the (+)-isomer”. Further, the “Mydriasis Integral Percent 120 Mins.” value in data set [3] is 6700%. For the same compound, the “Inhibition of Noradrenaline Uptake In Vitro %” value in the data set on Noradrenaline uptake is reported as 64%.
Consider `CN(C)CCC(O)(c1ccccc1)c1ccccc1` [1:1-diphenyl-3-dimethylaminopopan-1-ol], for which, in the data set on central nervous system, the “effects on the central nervous system” value is listed as “considerable effects on the central nervous system”; the side effects result was “anorexia, diuresis, ataxia and drowsiness”.
